Source: PMC2642729, “Interpain A, a Cysteine Proteinase from Prevotella intermedia, Inhibits Complement by Degrading Complement Factor C3” (PLoS Pathogens, 2009)

Target: T1, interpain A (InpA) (Prevotella intermedia, UniProt A9J7N5)
T1 construct: gene pin0048; full precursor 868 residues with 44-residue signal peptide; mature form 28 kDa (Val112-Pro359)
Experiment: active-site titration; residual activity by AMC release from Boc-Val-Leu-Lys-AMC
Type: biochemical
Conditions: titrated to total inactivation; pH 7.5, 5 mM EDTA, 2 mM DTT; 37 min preincubation at room temperature; covalent active-site cysteine inhibitor (mode known, not given)

T1 sequence (A9J7N5 entry or part of it): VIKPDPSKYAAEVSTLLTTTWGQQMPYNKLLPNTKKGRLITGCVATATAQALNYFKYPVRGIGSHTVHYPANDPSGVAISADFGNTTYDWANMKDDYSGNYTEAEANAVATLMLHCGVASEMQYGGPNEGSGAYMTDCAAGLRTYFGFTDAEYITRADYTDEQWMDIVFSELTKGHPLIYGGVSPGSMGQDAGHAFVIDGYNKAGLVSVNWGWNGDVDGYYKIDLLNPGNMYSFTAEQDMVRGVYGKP

SMILES: CC(C)C[C@H](NC(=O)[C@H]1O[C@@H]1C(=O)O)C(=O)NCCCCNC(=N)N [E64]
- active-site titration; residual activity by AMC release from Boc-Val-Leu-Lys-AMC: determined by active site titration using inhibitor E64 (Sigma)
